# According to patent US20220144839A1, “INDOLE AHR INHIBITORS AND USES THEREOF” (Ikena Oncology, Inc., priority 2018, published 2022):
# Target: T1, AHR (UniProt P35869)
# T1 sequence (P35869 1-848): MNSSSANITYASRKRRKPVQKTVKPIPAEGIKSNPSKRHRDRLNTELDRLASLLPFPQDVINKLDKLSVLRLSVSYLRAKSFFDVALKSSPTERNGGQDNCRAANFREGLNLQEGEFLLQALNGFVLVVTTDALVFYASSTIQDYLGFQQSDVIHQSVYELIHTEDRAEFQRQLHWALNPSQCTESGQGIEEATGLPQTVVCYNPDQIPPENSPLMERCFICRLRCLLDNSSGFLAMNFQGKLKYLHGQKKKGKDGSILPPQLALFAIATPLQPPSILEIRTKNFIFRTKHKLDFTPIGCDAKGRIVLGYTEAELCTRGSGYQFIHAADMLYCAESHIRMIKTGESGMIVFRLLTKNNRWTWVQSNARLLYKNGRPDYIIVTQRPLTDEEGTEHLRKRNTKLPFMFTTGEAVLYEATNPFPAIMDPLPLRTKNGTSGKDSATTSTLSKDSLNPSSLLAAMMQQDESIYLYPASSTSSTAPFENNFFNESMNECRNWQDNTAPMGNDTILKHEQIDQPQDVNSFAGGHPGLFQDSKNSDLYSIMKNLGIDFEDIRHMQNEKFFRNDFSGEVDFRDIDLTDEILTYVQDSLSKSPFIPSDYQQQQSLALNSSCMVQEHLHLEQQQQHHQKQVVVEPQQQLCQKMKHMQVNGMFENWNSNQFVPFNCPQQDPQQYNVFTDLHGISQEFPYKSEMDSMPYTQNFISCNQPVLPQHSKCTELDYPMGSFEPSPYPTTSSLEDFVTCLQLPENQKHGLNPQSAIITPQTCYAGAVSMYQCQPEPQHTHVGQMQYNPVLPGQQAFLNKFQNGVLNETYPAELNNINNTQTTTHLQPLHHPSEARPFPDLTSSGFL
# Assay: DRE-Luciferase Reporter Assay (Alternate Method), Example 1B
# Format: cell-based
# Details: concentration which inhibits half of the luciferase activity induced by AHR activating ligand; DRE-luciferase reporter cell line
# Procedure: AHR binds to Dioxin Responsive Elements (DRE) upstream of genes that it activates. One measure of AHR activity is activation of a reporter gene, such as luciferase, downstream of one or multiple DRE elements. Luciferase activity will reflect activation and inhibition of AHR in the cells expressing his reporter.
# Murine Hepa1-6 or Hepa-1c1c7 or other murine cell line with a DRE-luciferase reporter either stably or transiently transfected were plated in media in plates (96-well, 384-well or other plates) and incubated overnight at 37° C. in a C02 incubator or compound and agonist were added at the time of plating. Likewise, human HepG2 or other human cell line with a DRE-luciferase reporter either stably or transiently transfected were plated in media in plates (96-well, 384-well or other plates) and incubated overnight at 37° C. in a C02 incubator or compound and agonist were added at the time of plating.
# At the time that cells are plated or following incubation overnight, an AHR activating ligand, such as TCDD, kynurenine, ITE (2-(1H-indole-3-ylcarbonyl)-4-thiazolecarboxylic methyl ester), VAF347, BNF (beta-naphthoflavone), FICZ (6-formylindolo(3,2-b) carbazole or other AHR ligands, was added with or without AHR antagonist.
# Cells were incubated for 4, 15 or 24 hours or another time point and then lysed for determination of luciferase activity as a read-out of the AHR activation or inhibition. Luciferase was measured with a commercial kit such as the Promega Luciferase kit or any kit or reagents that provide the luciferin substrate for measuring luciferase activity. The level of luciferase with only activating ligand added was the maximum signal while the luciferase with no ligand was the minimum signal. IC50 values were determined as the concentration which inhibits half of the luciferase activity.
row,IC50,Compound
1,> 1.5 µM,"CC(C)c1cnn2c(N[C@H]3CCc4[nH]c5cccc(O)c5c4C3)nc(-c3cncc(F)c3)nc12 [Compound I-29a, (6S)-6-[[2-(5-Fluoro-3-pyridyl)-8-isopropyl-pyrazolo[1,5-a][1,3,5]triazin-4-yl]amino]-6,7,8,9-tetrahydro-5H-carbazol-4-ol]"
2,1 to 1.5 µM,"CC(C)c1cnn2c(N[C@@H]3CCc4[nH]c5cccnc5c4C3)nc(-c3cncc(F)c3)nc12 [Compound I-8b, (8R)—N-[2-(5-Fluoro-3-pyridyl)-8-isopropyl-pyrazolo[1,5-a][1,3,5]triazin-4-yl]-6,7,8,9-tetrahydro-5H-pyrido[3,2-b]indol-8-amine]"
3,1 to 1.5 µM,"CC(C)c1cnn2c(N[C@@H]3CCc4[nH]c5ccccc5c4C3)nc(-n3cnc4ccccc43)nc12 [Compound I-12, (3R)—N-[2-(Benzimidazol-1-yl)-8-isopropyl-pyrazolo[1,5-a][1,3,5]triazin-4-yl]-2,3,4,9-tetrahydro-1H-carbazol-3-amine]"
4,> 1.5 µM,"CC(C)c1cnn2c(NCCCCO)nc(-c3cncc(F)c3)nc12 [Compound I-39, 4-[[2-(5-Fluoro-3-pyridyl)-8-isopropyl-pyrazolo[1,5-a][1,3,5]triazin-4-yl]amino]butan-1-ol]"
5,> 1.5 µM,"CC(C)c1cnn2c(N[C@@H]3CCc4[nH]c5cccc(O)c5c4C3)nc(-c3cncc(F)c3)nc12 [Compound I-29b, (6R)-6-[[2-(5-Fluoro-3-pyridyl)-8-isopropyl-pyrazolo[1,5-a][1,3,5]triazin-4-yl]amino]-6,7,8,9-tetrahydro-5H-carbazol-4-ol]"
6,< 0.5 µM,"C=C(C)c1cnn2c(N[C@@H]3CCc4[nH]c5ccccc5c4C3)nc(-c3cncc(F)c3)nc12 [Compound I-11, (3R)—N-[2-(5-Fluoro-3-pyridyl)-8-isopropenyl-pyrazolo[,5-a][1,3,5]triazin-4-yl]-2,3,4,9-tetrahydro-1H-carbazol-3-amine]"
7,< 0.5 µM,"C[C@H](CO)c1cnn2c(N[C@@H]3CCc4[nH]c5ccccc5c4C3)nc(-c3cncc(F)c3)nc12 [Compound I-25b, (2S)-2-[2-(5-Fluoro-3-pyridyl)-4-[[(3R)-2,3,4,9-tetrahydro-1H-carbazol-3-yl]amino]pyrazolo[1,5-a][1,3,5]triazin-8-yl]propan-1-ol]"
8,> 1.5 µM,"CC(C)c1cnn2c(N[C@@H]3CCc4c(cc[nH]c4=O)C3)nc(-c3cncc(F)c3)nc12 [Compound I-66a, (6R)-6-[[2-(5-Fluoro-3-pyridyl)-8-isopropyl-pyrazolo[1,5-a][1,3,5]triazin-4-yl]amino]-5,6,7,8-tetrahydro-2H-isoquinolin-1-one]"
9,> 1.5 µM,"CC(C)c1cnn2c(N[C@H]3CC[C@H](O)CC3)nc(-c3cncc(F)c3)nc12 [Compound I-44a, 4-[[2-(5-Fluoro-3-pyridyl)-8-isopropyl-pyrazolo[1,5-a][1,3,5]triazin-4-yl]amino]cyclohexanol]"
10,1 to 1.5 µM,"CC(C)c1cnn2c(NCCNc3ccccn3)nc(-c3cncc(F)c3)nc12 [Compound I-45, N′-[2-(5-Fluoro-3-pyridyl)-8-isopropyl-pyrazolo[1,5-a][1,3,5]triazin-4-yl]-N-(2-pyridyl)ethane-1,2-diamine]"
11,1 to 1.5 µM,"CC(C)c1cnn2c(N[C@H]3CCc4[nH]ncc4C3)nc(-c3cncc(F)c3)nc12 [Compound I-7b, 2-(5-fluoro-3-pyridyl)-8-isopropyl-N-[(5S)-4,5,6,7-tetrahydro-1H-indazol-5-yl]pyrazolo[1,5-a][1,3,5]triazin-4-amine]"
12,0.5 to 1 µM,"CC(C)c1cnn2c(N[C@@H]3CCc4[nH]c5ccccc5c4C3)nc(-c3cnsc3)nc12 [Compound I-53, (3R)—N-(8-Isopropyl-2-isothiazol-4-yl-pyrazolo[1,5-a][1,3,5]triazin-4-yl)-2,3,4,9-tetrahydro-1H-carbazol-3-amine]"
13,> 1.5 µM,"Cc1nccn1-c1nc(N[C@@H]2CCc3[nH]c4ccccc4c3C2)n2ncc(C(C)C)c2n1 [Compound I-19, (3R)—N-[8-Isopropyl-2-(2-methylimidazol-1-yl)pyrazolo[1,5-a][1,3,5]triazin-4-yl]-2,3,4,9-tetrahydro-1H-carbazol-3-amine]"
14,> 1.5 µM,"CC(C)c1cnn2c(N[C@H]3CCc4ccccc4C3)nc(-c3cncc(F)c3)nc12 [Compound I-48b, 2-(5-Fluoro-3-pyridyl)-8-isopropyl-N-[(2S)-tetralin-2-yl]pyrazolo[1,5-a][1,3,5]triazin-4-amine]"
15,< 0.5 µM,"CNc1cnn2c(N[C@@H]3CCc4[nH]c5ccccc5c4C3)nc(-c3cncc(F)c3)nc12 [Compound I-51, 2-(5-Fluoro-3-pyridyl)-N8-methyl-N4-[(3R)-2,3,4,9-tetrahydro-1H-carbazol-3-yl]pyrazolo[1,5-a][1,3,5]triazine-4,8-diamine]"
16,> 1.5 µM,"CC(C)c1cnn2c(N[C@@H]3CCc4[nH]c5ccc(O)cc5c4C3)nc(-c3cncc(F)c3)nc12 [Compound I-34b, (6R)-6-[[2-(5-Fluoro-3-pyridyl)-8-isopropyl-pyrazolo[1,5-a][1,3,5]triazin-4-yl]amino]-6,7,8,9-tetrahydro-5H-carbazol-3-ol]"
17,> 1.5 µM,"CC(C)c1cnn2c(N[C@H]3CNc4ncncc4C3)nc(-c3cncc(F)c3)nc12 [Compound I-60a, (6R)—N-[2-(5-Fluoro-3-pyridyl)-8-isopropyl-pyrazolo[1,5-a][1,3,5]triazin-4-yl]-5,6,7,8-tetrahydropyrido[2,3-d]pyrimidin-6-amine]"
18,> 1.5 µM,"CC(C)c1cnn2c(N[C@H]3CCc4[nH]c(=O)ccc4C3)nc(-c3cncc(F)c3)nc12 [Compound I-36b, (S)-6-((2-(5-Fluoropyridin-3-yl)-8-isopropylpyrazolo[1,5-a][1,3,5]triazin-4-yl)amino)-5,6,7,8-tetrahydroquinolin-2(1H)-one]"
19,< 0.5 µM,"COc1ccnc2c(N[C@@H]3CCc4[nH]c5ccccc5c4C3)nc(-c3cncc(F)c3)nc12 [Compound I-23, (3R)—N-[2-(5-fluoro-3-pyridyl)-8-methoxy-pyrido[3,2-d]pyrimidin-4-yl]-2,3,4,9-tetrahydro-1H-carbazol-3-amine]"
20,> 1.5 µM,"CC(C)c1cnn2c(N[C@@H]3CCc4[nH]c5ccccc5c4C3)nc([C@@H]3CCCOC3)nc12 [Compound I-15a, (3R)—N-(8-isopropyl-2-tetrahydropyran-3-yl-pyrazolo[1,5-a][1,3,5]triazin-4-yl)-2,3,4,9-tetrahydro-1H-carbazol-3-amine]"
21,> 1.5 µM,"CC(C)c1cnn2c(N[C@@H]3CCc4[nH]c5c(O)cccc5c4C3)nc(-c3cncc(F)c3)nc12 [Compound I-24a, (6R)-6-[[2-(5-fluoro-3-pyridyl)-8-isopropyl-pyrazolo[1,5-a][1,3,5]triazin-4-yl]amino]-6,7,8,9-tetrahydro-5H-carbazol-1-ol]"
22,< 0.5 µM,"O[C@H](c1cnn2c(N[C@@H]3CCc4[nH]c5ccccc5c4C3)nc(-c3cncc(F)c3)nc12)C(F)(F)F [Compound I-41a, (1R)-2,2,2-Trifluoro-1-[2-(5-fluoro-3-pyridyl)-4-[[(3R)-2,3,4,9-tetrahydro-1H-carbazol-3-yl]amino]pyrazolo[1,5-a][1,3,5]triazin-8-yl]ethanol]"
23,1 to 1.5 µM,"CC(C)c1cnn2c(N[C@H]3CCc4[nH]c5cccnc5c4C3)nc(-c3cncc(F)c3)nc12 [Compound I-8a, (8S)—N-[2-(5-Fluoro-3-pyridyl)-8-isopropyl-pyrazolo[1,5-a][1,3,5]triazin-4-yl]-6,7,8,9-tetrahydro-5H-pyrido[3,2-b]indol-8-amine]"
